Results taken from publication PMC10648852, “Molecular drivers of resistance to sulbactam-durlobactam in contemporary clinical isolates of Acinetobacter baumannii” (Antimicrobial Agents and Chemotherapy, 2023).
Like-named read-outs stand apart in the source and are kept apart here.

Experiments:
[1] = system: A. baumannii wild-type PBP3; assay: Acylation rate constant (kinact/Ki), fluorescence anisotropy competition with BOCILLIN; settings: Wildtype PBP3
[2] = system: A. nosocomialis clinical isolate; assay: microbe, parasite or virus in culture; format: cell-based; settings: Acinetobacter nosocomialis, isolate ARC7023 (IHMA 2118812), France, BSI, 2019, read-out: MIC
Outline: (§1)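 SUL-DUR combines serially twofold-diluted sulbactam with durlobactam held at 4 µg/mL; MICs obtained by CLSI-standard broth microdilution and read against CLSI breakpoints when these exist.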

[3] = system: A. pittii clinical isolates; assay: microbe, parasite or virus in culture; format: cell-based; settings: Acinetobacter pittii
Outline: as §1

[4] = system: A. baumannii clinical isolates; assay: microbe, parasite or virus in culture; format: cell-based; settings: Acinetobacter baumannii
Outline: as §1

[5] = system: ABC clinical isolates with SUL-DUR MIC > 4 µg/mL; assay: microbe, parasite or virus in culture; format: cell-based, Acinetobacter baumannii-calcoaceticus complex
Outline: as §1

[6] = system: A. baumannii PBP3 Q488K; assay: Acylation rate constant (kinact/Ki), fluorescence anisotropy competition with BOCILLIN

`CC1(C)[C@H](C(=O)O)N2C(=O)C[C@H]2S1(=O)=O` [sulbactam] was tested, and the “% WT” value [1] was 100%, the “k inact/K i” value ([1]; average ± SD) was 15 ± 3 ([10]) M^-1s^-1 and the MIC [2] was 32 µg/mL. The MIC ([3]; isolate ARC6949 (IHMA 1898982), Romania, RTI, 2018, read-out: MIC) was 64 µg/mL, the MIC ([3]; isolate ARC6951 (IHMA 1776233), Philippines, RTI, 2018, read-out: MIC) was over 64 µg/mL and the MIC ([3]; isolate ARC6952 (IHMA 1899008), Romania, RTI, 2018, read-out: MIC) was over 64 µg/mL. For the same compound, the MIC ([3]; isolate ARC7087 (IHMA 2212062), Colombia, BSI, 2020, read-out: MIC) was 64 µg/mL, the MIC ([4]; isolate ARC6644 (IHMA 1420327), Mexico, UTI, 2016, read-out: MIC) was 64 µg/mL and the MIC ([4]; isolate ARC6645 (IHMA 1435703), France, UTI, 2016, read-out: MIC) was over 64 µg/mL. The MIC ([4]; isolate ARC6646 (IHMA 1484127), United States, RTI, 2016, read-out: MIC) was over 64 µg/mL, the MIC ([4]; isolate ARC6647 (IHMA 1386786), Argentina, RTI, 2016, read-out: MIC) was over 64 µg/mL and the MIC ([4]; isolate ARC6648 (IHMA 1407634), Spain, RTI, 2016, read-out: MIC) was 64 µg/mL. For the same compound, the MIC ([4]; isolate ARC6650 (IHMA 1457337), Argentina, RTI, 2016, read-out: MIC) was 64 µg/mL, the MIC ([4]; isolate ARC6652 (IHMA 1465642), Belgium, RTI, 2016, read-out: MIC) was over 64 µg/mL and the MIC ([4]; isolate ARC6653 (IHMA 1308777), Vietnam, RTI, 2016, read-out: MIC) was over 64 µg/mL. It also gave an MIC ([4]; isolate ARC6799 (IHMA 1562935), Spain, UTI, 2017, read-out: MIC) of over 64 µg/mL, an MIC ([4]; isolate ARC6800 (IHMA 1557526), Turkey, RTI, 2017, read-out: MIC) of 64 µg/mL and an MIC ([4]; isolate ARC6801 (IHMA 1662094), Thailand, RTI, 2017, read-out: MIC) of 64 µg/mL. It also gave an MIC ([4]; isolate ARC6802 (IHMA 1557073), Spain, UTI, 2017, read-out: MIC) of over 64 µg/mL, an MIC ([4]; isolate ARC6803 (IHMA 1589408), Belgium, UTI, 2017, read-out: MIC) of over 64 µg/mL and an MIC ([4]; isolate ARC6805 (IHMA 1558650), United States, RTI, 2017, read-out: MIC) of 64 µg/mL. It also gave an MIC ([4]; isolate ARC6808 (IHMA 1557168), Spain, RTI, 2017, read-out: MIC) of 16 µg/mL, an MIC ([4]; isolate ARC6809 (IHMA 1699528), Guatemala, RTI, 2017, read-out: MIC) of over 64 µg/mL and an MIC ([4]; isolate ARC6810 (IHMA 1699548), Guatemala, RTI, 2017, read-out: MIC) of over 64 µg/mL. The MIC ([4]; isolate ARC6812 (IHMA 1699530), Guatemala, RTI, 2017, read-out: MIC) was over 64 µg/mL, the MIC ([4]; isolate ARC6813 (IHMA 1699543), Guatemala, UTI, 2017, read-out: MIC) was over 64 µg/mL and the MIC ([4]; isolate ARC6814 (IHMA 1699512), Guatemala, RTI, 2017, read-out: MIC) was over 64 µg/mL. It also gave an MIC ([4]; isolate ARC6815 (IHMA 1699513), Guatemala, RTI, 2017, read-out: MIC) of over 64 µg/mL, an MIC ([4]; isolate ARC6816 (IHMA 1699521), Guatemala, RTI, 2017, read-out: MIC) of over 64 µg/mL and an MIC ([4]; isolate ARC6817 (IHMA 1699523), Guatemala, RTI, 2017, read-out: MIC) of over 64 µg/mL. The MIC ([4]; isolate ARC6818 (IHMA 1683261), Thailand, RTI, 2017, read-out: MIC) was 64 µg/mL, the MIC ([4]; isolate ARC6819 (IHMA 1683267), Thailand, RTI, 2017, read-out: MIC) was over 64 µg/mL and the MIC ([4]; isolate ARC6820 (IHMA 1647876), Argentina, RTI, 2017, read-out: MIC) was over 64 µg/mL. For the same compound, the MIC ([4]; isolate ARC6821 (IHMA 1699517), Guatemala, RTI, 2017, read-out: MIC) was over 64 µg/mL, the MIC ([4]; isolate ARC6822 (IHMA 1637626), Guatemala, RTI, 2017, read-out: MIC) was over 64 µg/mL and the MIC ([4]; isolate ARC6823 (IHMA 1620872), Greece, SSSI, 2017, read-out: MIC) was 32 µg/mL. The MIC ([4]; isolate ARC6824 (IHMA 1625487), Argentina, BSI, 2017, read-out: MIC) was 64 µg/mL, the MIC ([4]; isolate ARC6937 (IHMA 1562926), Spain, UTI, 2017, read-out: MIC) was over 64 µg/mL and the MIC ([4]; isolate ARC6950 (IHMA 1820064), Israel, RTI, 2018, read-out: MIC) was 64 µg/mL. It also gave an MIC ([4]; isolate ARC6953 (IHMA 1909827), Turkey, IAI, 2018, read-out: MIC) of 64 µg/mL, an MIC ([4]; isolate ARC6954 (IHMA 1838192), Guatemala, SSSI, 2018, read-out: MIC) of over 64 µg/mL and an MIC ([4]; isolate ARC6955 (IHMA 1825425), United States, RTI, 2018, read-out: MIC) of 16 µg/mL. For the same compound, the MIC ([4]; isolate ARC7008 (IHMA 2009813), Thailand, BSI, 2019, read-out: MIC) was over 64 µg/mL, the MIC ([4]; isolate ARC7009 (IHMA 2043611), United States, UTI, 2019, read-out: MIC) was over 64 µg/mL and the MIC ([4]; isolate ARC7010 (IHMA 2043398), United States, RTI, 2019, read-out: MIC) was over 64 µg/mL. For the same compound, the MIC ([4]; isolate ARC7011 (IHMA 2104553), Germany, RTI, 2019, read-out: MIC) was over 64 µg/mL, the MIC ([4]; isolate ARC7012 (IHMA 2010001), Thailand, RTI, 2019, read-out: MIC) was over 64 µg/mL and the MIC ([4]; isolate ARC7013 (IHMA 1962831), Argentina, RTI, 2019, read-out: MIC) was over 64 µg/mL. For the same compound, the MIC ([4]; isolate ARC7014 (IHMA 2045328), Guatemala, IAI, 2019, read-out: MIC) was 64 µg/mL, the MIC ([4]; isolate ARC7015 (IHMA 2045327), Guatemala, UTI, 2019, read-out: MIC) was over 64 µg/mL and the MIC ([4]; isolate ARC7016 (IHMA 2148441), Brazil, BSI, 2019, read-out: MIC) was 64 µg/mL. For the same compound, the MIC ([4]; isolate ARC7017 (IHMA 2148446), Brazil, BSI, 2019, read-out: MIC) was 64 µg/mL, the MIC ([4]; isolate ARC7018 (IHMA 2045454), Guatemala, IAI, 2019, read-out: MIC) was over 64 µg/mL and the MIC ([4]; isolate ARC7019 (IHMA 2114463), Thailand, RTI, 2019, read-out: MIC) was 32 µg/mL. For the same compound, the MIC ([4]; isolate ARC7020 (IHMA 2045326), Guatemala, RTI, 2019, read-out: MIC) was 32 µg/mL, the MIC ([4]; isolate ARC7021 (IHMA 1966347), Guatemala, RTI, 2019, read-out: MIC) was over 64 µg/mL and the MIC ([4]; isolate ARC7022 (IHMA 2045319), Guatemala, IAI, 2019, read-out: MIC) was 32 µg/mL. The MIC ([4]; isolate ARC7024 (IHMA 2059448), Turkey, RTI, 2019, read-out: MIC) was 64 µg/mL, the MIC ([4]; isolate ARC7025 (IHMA 2002121), Spain, RTI, 2019, read-out: MIC) was 32 µg/mL and the MIC ([4]; isolate ARC7026 (IHMA 2104494), Guatemala, BSI, 2019, read-out: MIC) was 32 µg/mL. For the same compound, the MIC ([4]; isolate ARC7082 (IHMA 2160640), Belgium, BSI, 2020, read-out: MIC) was over 64 µg/mL, the MIC ([4]; isolate ARC7083 (IHMA 2163687), United States, RTI, 2020, read-out: MIC) was 64 µg/mL and the MIC ([4]; isolate ARC7084 (IHMA 2189596), Germany, RTI, 2020, read-out: MIC) was over 64 µg/mL. The MIC ([4]; isolate ARC7085 (IHMA 2205747), Guatemala, IAI, 2020, read-out: MIC) was over 64 µg/mL, the MIC ([4]; isolate ARC7086 (IHMA 2207563), Israel, RTI, 2020, read-out: MIC) was 32 µg/mL and the MIC ([4]; isolate ARC7088 (IHMA 2215554), Turkey, BSI, 2020, read-out: MIC) was over 64 µg/mL. The MIC ([4]; isolate ARC7089 (IHMA 2240345), Argentina, BSI, 2020, read-out: MIC) was over 64 µg/mL, the MIC ([4]; isolate ARC7090 (IHMA 2244410), Poland, RTI, 2020, read-out: MIC) was over 64 µg/mL and the MIC ([4]; isolate ARC7091 (IHMA 2244564), Australia, RTI, 2020, read-out: MIC) was over 64 µg/mL. For the same compound, the MIC ([4]; isolate ARC7092 (IHMA 2258772), United States, BSI, 2020, read-out: MIC) was over 64 µg/mL, the MIC ([4]; isolate ARC7093 (IHMA 2258783), United States, RTI, 2020, read-out: MIC) was 64 µg/mL and the MIC ([4]; isolate ARC7094 (IHMA 2296423), Turkey, RTI, 2020, read-out: MIC) was over 64 µg/mL. It also gave an MIC ([4]; isolate ARC7095 (IHMA 2320843), Turkey, BSI, 2020, read-out: MIC) of 64 µg/mL, an MIC ([4]; isolate ARC7156 (IHMA 2455450), Greece, RTI, 2021, read-out: MIC) of over 64 µg/mL and an MIC ([4]; isolate ARC7158 (IHMA 2523738), Italy, BSI, 2021, read-out: MIC) of over 64 µg/mL. It also gave an MIC ([4]; isolate ARC7159 (IHMA 2456229), Malaysia, RTI, 2021, read-out: MIC) of over 64 µg/mL, an MIC ([4]; isolate ARC7160 (IHMA 2458626), Thailand, RTI, 2021, read-out: MIC) of 64 µg/mL and an MIC ([4]; isolate ARC7161 (IHMA 2429252), Ukraine, RTI, 2021, read-out: MIC) of 8 µg/mL. The MIC ([4]; isolate ARC7162 (IHMA 2411847), United States, BSI, 2021, read-out: MIC) was over 64 µg/mL, the MIC ([4]; isolate ARC7163 (IHMA 2477704), United States, BSI, 2021, read-out: MIC) was over 64 µg/mL and the “%NS (% non-susceptibility)” value ([5]; 64 non-clonal ABC isolates, 2023 CLSI breakpoints plus FDA breakpoint of 4 µg/mL for SUL-DUR) was 100%. For the same compound, the MIC50 ([5]; Acinetobacter) was over 64 µg/mL, the MIC90 ([5]; Acinetobacter) was over 64 µg/mL and the MIC ([5]; Acinetobacter, read-out: MIC Max) was over 64 µg/mL. The MIC ([5]; Acinetobacter, read-out: MIC Min) was 8 µg/mL, the “% WT” value [6] was 60%–73% and the “k inact/K i” value ([6]; average ± SD) was 9.9 ± 0.3 ([2]) M^-1s^-1. For the same compound, the “% WT” value ([6]; listed as Sulbactam) was 66%.
